Assay results taken from US20260085253A1, “LILY OF THE VALLEY ODORANT” (Firmenich SA, priority 2022, published 2026).

Key:
Ixodes ricinus = experiment: Warm Plate assay: repellent efficacy on ticks; format: in vivo; conditions: for Percentage of repellence of ticks Ixodes ricinus on the warm plate: n = 12, last stage nymphs
Procedure: b) Warm Plate Assay: Small-Scale Test Used to Screen the Repellent Efficacy on Ticks at Different Concentrations.
Repellent efficacy of the different compounds was assessed against the sheep tick, Ixodes ricinus L that can transmit both bacterial and viral pathogens. I. ricinus is one of the recommended model organisms mentioned by the Guidance on the European […] [Vol IL, Efficacy—Assessment & Evaluation (Parts B+C), v6.0, Août 2023]. Observations of repellent efficacy were made on last stage nymphs.
The repellent efficacy was assessed using the protocol of the in-vitro Warm Plate Assay as defined in Kröber T, Bourquin M, Guerin P M. 2013. Pestic. Biochem. Phys. 107(2):160-168.
Ticks had the choice of crossing a zone with 3-(4-isopropyl-2-methylphenyl)propanal (96%) applied or to stay on their refuge without any compound applied. To motivate ticks' movement, the warm plate was heated at 33° C. (to mimic vertebrate skin temperature) and hold in a favourable environment (23° C., 85% RH).
The stimulus tested was stim A (3-(4-isopropyl-2-methylphenyl)propanal at 96%) diluted in ethanol. Twelve different ticks were tested for each of the four concentrations.

Aedes aegypti = experiment: Warm Body assay: repellent efficacy on mosquitoes; format: in vivo; conditions: 100 μL on warm body
Procedure: a) Warm Body Assay: Small-Scale Test Used to Screen the Repellent Efficacy on Mosquitoes at Different Concentrations. […] Anopheles gambiae is also a model organism as it is anthropophilic and transmits malaria. The controlling effect according to the present invention was assessed using an adapted Warm Body assay as defined in Kröber T, Kessler S, FreiJ, Bourquin M, Guerin P M. 2010. J Am Mosq Control Assoc. 26:381-386. In this in-vitro assay the number of mosquito landing on a warm body, simulating an attractive host treated with the tested stimuli, was measured in order to assess the repellence effect. The published protocol has been adapted as the switch from Anopheles gambiae to Aedes aegypti led to a decrease of mosquitoes placed in the tested cage due to the size difference (i.e. 30 mosquitoes instead of 50) and to an increase of lighting since Ae. aegypti is a diurnal mosquitoes (i.e. 150 lux instead of 4 lux). On the sandblasted glass Petri dish covering the warm body (28.3 cm^2), 100 μL of the compounds diluted at 5-8 concentrations in ethanol was applied. The number of mosquito landing on the warm body was counted for each stimulus and pure ethanol (solvent) as control. The stimuli tested were stim A (3-(4-isopropyl-2-methylphenyl)propanal at 96%) and stim B (a composition of matter comprising 3-(4-isopropyl-2-methylphenyl)propanal, 3-(2-isopropyl-4-methylphenyl)propanal and 3-(2-methyl-5-propan-2-ylphenyl)propanal at 88%, 5% and 2%, respectively) diluted in ethanol. Five to eight concentrations were assessed on each stimulus, missing data points mentioned as n.d. The mean number of mosquito landings with the solvent only (0 mg/mL) is equal to 64.5±10.1 landings in two minutes.

Structure (SMILES): Cc1cc(C(C)C)ccc1CCC=O [Stim A, 3-(4-isopropyl-2-methylphenyl)propanal]
- Percentage of repellence of ticks Ixodes ricinus on the warm plate (Ixodes ricinus; 0.4 mg/mL in ethanol): 25.0%
- Percentage of repellence of ticks Ixodes ricinus on the warm plate (Ixodes ricinus; 2 mg/mL in ethanol): 100.0%
- Percentage of repellence of ticks Ixodes ricinus on the warm plate (Ixodes ricinus; 10 mg/mL in ethanol): 100.0%
- repellence of ticks Ixodes ricinus on the warm plate (in words) (Ixodes ricinus; as soon as 0.02% applied on the warm plate): All ticks were repelled
- Percentage of repellence of mosquitoes Aedes aegypti landing on the warm body (Aedes aegypti; 0.0032 mg/mL in ethanol): 20%
- Percentage of repellence of mosquitoes Aedes aegypti landing on the warm body (Aedes aegypti; 0.016 mg/mL in ethanol): 41%
- Percentage of repellence of mosquitoes Aedes aegypti landing on the warm body (Aedes aegypti; 0.08 mg/mL in ethanol): 40%
- Percentage of repellence of mosquitoes Aedes aegypti landing on the warm body (Aedes aegypti; 0.4 mg/mL in ethanol): 63%
- Percentage of repellence of mosquitoes Aedes aegypti landing on the warm body (Aedes aegypti; 2 mg/mL in ethanol): 71%
- Percentage of repellence of mosquitoes Aedes aegypti landing on the warm body (Aedes aegypti; 10 mg/mL in ethanol): 90%
